{
  "source": "patent US20260130395A1",
  "about": "“Water Dispersible Botanical Compositions” (Aquila Black Limited, priority 2021, published 2026)",
  "experiment": "Stability of cannabinoid compounds and Vitamin E components in Beverage 1 (AB White) by LCMSMS",
  "type": "physicochemical",
  "settings": "for Stability of Plant-Derived Cannabinoid Compounds in AB White, 8° C.: AB White stored at 8° C.; for Stability of Plant-Derived Cannabinoid Compounds in AB White, 21-25° C.: AB White stored at 21-25° C.",
  "description": "The stability of the plant-derived cannabinoid compounds and Vitamin E components of the beverage stored 8° C. and at room temperature (21-25° C.) were monitored, over a period of 570 days via Liquid Chromatography-tandem Mass Spectrometry [LCMSMS, Agilent 6590, C18, 3×50 mm, 2.7 m (Agilent InfinityLab Poroshell 120 EC-C18), Electrospray Ionization detector]. The LCMSMS was calibrated for 0-1000 ng/ml cannabinoids with the same resin material used in the preparation of the concentrates. At each time period, 100 ml of beverage was diluted with 10 ml of methanol and injected into the LCMSMS for analysis.",
  "data": [
    {"smiles": "CCCCCc1cc2c(c(O)c1C(=O)O)[C@@H]1C=C(C)CC[C@H]1C(C)(C)O2", "note": "[D9 THCA, delta-9-tetrahydrocannabinolic acid]", "values": [
      {"measurement": "Stability of Plant-Derived Cannabinoid Compounds in AB White, 8° C.", "setting": "29 days", "value": 0.939, "unit": "µg/mL"},
      {"measurement": "Stability of Plant-Derived Cannabinoid Compounds in AB White, 8° C.", "setting": "30 days", "value": 0.955, "unit": "µg/mL"},
      {"measurement": "Stability of Plant-Derived Cannabinoid Compounds in AB White, 8° C.", "setting": "60 days", "value": 0.914, "unit": "µg/mL"},
      {"measurement": "Stability of Plant-Derived Cannabinoid Compounds in AB White, 8° C.", "setting": "90 days", "value": 0.948, "unit": "µg/mL"},
      {"measurement": "Stability of Plant-Derived Cannabinoid Compounds in AB White, 8° C.", "setting": "120 days", "value": 0.932, "unit": "µg/mL"},
      {"measurement": "Stability of Plant-Derived Cannabinoid Compounds in AB White, 8° C.", "setting": "150 days", "value": 0.952, "unit": "µg/mL"},
      {"measurement": "Stability of Plant-Derived Cannabinoid Compounds in AB White, 8° C.", "setting": "180 days", "value": 0.941, "unit": "µg/mL"},
      {"measurement": "Stability of Plant-Derived Cannabinoid Compounds in AB White, 8° C.", "setting": "210 days", "value": 0.923, "unit": "µg/mL"},
      {"measurement": "Stability of Plant-Derived Cannabinoid Compounds in AB White, 8° C.", "setting": "240 days", "value": 0.932, "unit": "µg/mL"},
      {"measurement": "Stability of Plant-Derived Cannabinoid Compounds in AB White, 8° C.", "setting": "270 days", "value": 0.933, "unit": "µg/mL"},
      {"measurement": "Stability of Plant-Derived Cannabinoid Compounds in AB White, 8° C.", "setting": "300 days", "value": 0.939, "unit": "µg/mL"},
      {"measurement": "Stability of Plant-Derived Cannabinoid Compounds in AB White, 8° C.", "setting": "330 days", "value": 0.909, "unit": "µg/mL"},
      {"measurement": "Stability of Plant-Derived Cannabinoid Compounds in AB White, 8° C.", "setting": "360 days", "value": 0.913, "unit": "µg/mL"},
      {"measurement": "Stability of Plant-Derived Cannabinoid Compounds in AB White, 8° C.", "setting": "390 days", "value": 0.923, "unit": "µg/mL"},
      {"measurement": "Stability of Plant-Derived Cannabinoid Compounds in AB White, 8° C.", "setting": "420 days", "value": 0.916, "unit": "µg/mL"},
      {"measurement": "Stability of Plant-Derived Cannabinoid Compounds in AB White, 8° C.", "setting": "450 days", "value": 0.923, "unit": "µg/mL"},
      {"measurement": "Stability of Plant-Derived Cannabinoid Compounds in AB White, 8° C.", "setting": "480 days", "value": 0.905, "unit": "µg/mL"},
      {"measurement": "Stability of Plant-Derived Cannabinoid Compounds in AB White, 8° C.", "setting": "510 days", "value": 0.873, "unit": "µg/mL"},
      {"measurement": "Stability of Plant-Derived Cannabinoid Compounds in AB White, 8° C.", "setting": "540 days", "value": 0.877, "unit": "µg/mL"},
      {"measurement": "Stability of Plant-Derived Cannabinoid Compounds in AB White, 8° C.", "setting": "570 days", "value": 0.872, "unit": "µg/mL"},
      {"measurement": "Stability of Plant-Derived Cannabinoid Compounds in AB White, 21-25° C.", "setting": "0 days", "value": 0.950, "unit": "µg/mL"},
      {"measurement": "Stability of Plant-Derived Cannabinoid Compounds in AB White, 21-25° C.", "setting": "1 days", "value": 0.960, "unit": "µg/mL"},
      {"measurement": "Stability of Plant-Derived Cannabinoid Compounds in AB White, 21-25° C.", "setting": "2 days", "value": 0.938, "unit": "µg/mL"},
      {"measurement": "Stability of Plant-Derived Cannabinoid Compounds in AB White, 21-25° C.", "setting": "3 days", "value": 0.920, "unit": "µg/mL"},
      {"measurement": "Stability of Plant-Derived Cannabinoid Compounds in AB White, 21-25° C.", "setting": "5 days", "value": 0.958, "unit": "µg/mL"},
      {"measurement": "Stability of Plant-Derived Cannabinoid Compounds in AB White, 21-25° C.", "setting": "8 days", "value": 0.937, "unit": "µg/mL"},
      {"measurement": "Stability of Plant-Derived Cannabinoid Compounds in AB White, 21-25° C.", "setting": "9 days", "value": 0.926, "unit": "µg/mL"},
      {"measurement": "Stability of Plant-Derived Cannabinoid Compounds in AB White, 21-25° C.", "setting": "10 days", "value": 0.935, "unit": "µg/mL"},
      {"measurement": "Stability of Plant-Derived Cannabinoid Compounds in AB White, 21-25° C.", "setting": "11 days", "value": 0.949, "unit": "µg/mL"},
      {"measurement": "Stability of Plant-Derived Cannabinoid Compounds in AB White, 21-25° C.", "setting": "12 days", "value": 0.935, "unit": "µg/mL"},
      {"measurement": "Stability of Plant-Derived Cannabinoid Compounds in AB White, 21-25° C.", "setting": "15 days", "value": 0.948, "unit": "µg/mL"},
      {"measurement": "Stability of Plant-Derived Cannabinoid Compounds in AB White, 21-25° C.", "setting": "16 days", "value": 0.921, "unit": "µg/mL"},
      {"measurement": "Stability of Plant-Derived Cannabinoid Compounds in AB White, 21-25° C.", "setting": "17 days", "value": 0.919, "unit": "µg/mL"},
      {"measurement": "Stability of Plant-Derived Cannabinoid Compounds in AB White, 21-25° C.", "setting": "18 days", "value": 0.928, "unit": "µg/mL"},
      {"measurement": "Stability of Plant-Derived Cannabinoid Compounds in AB White, 21-25° C.", "setting": "19 days", "value": 0.917, "unit": "µg/mL"},
      {"measurement": "Stability of Plant-Derived Cannabinoid Compounds in AB White, 21-25° C.", "setting": "22 days", "value": 0.947, "unit": "µg/mL"},
      {"measurement": "Stability of Plant-Derived Cannabinoid Compounds in AB White, 21-25° C.", "setting": "23 days", "value": 0.924, "unit": "µg/mL"},
      {"measurement": "Stability of Plant-Derived Cannabinoid Compounds in AB White, 21-25° C.", "setting": "24 days", "value": 0.927, "unit": "µg/mL"},
      {"measurement": "Stability of Plant-Derived Cannabinoid Compounds in AB White, 21-25° C.", "setting": "25 days", "value": 0.948, "unit": "µg/mL"},
      {"measurement": "Stability of Plant-Derived Cannabinoid Compounds in AB White, 21-25° C.", "setting": "26 days", "value": 0.921, "unit": "µg/mL"},
      {"measurement": "Stability of Plant-Derived Cannabinoid Compounds in AB White, 21-25° C.", "setting": "29 days", "value": 0.922, "unit": "µg/mL"},
      {"measurement": "Stability of Plant-Derived Cannabinoid Compounds in AB White, 21-25° C.", "setting": "30 days", "value": 0.934, "unit": "µg/mL"},
      {"measurement": "Stability of Plant-Derived Cannabinoid Compounds in AB White, 21-25° C.", "setting": "60 days", "value": 0.896, "unit": "µg/mL"},
      {"measurement": "Stability of Plant-Derived Cannabinoid Compounds in AB White, 21-25° C.", "setting": "90 days", "value": 0.892, "unit": "µg/mL"},
      {"measurement": "Stability of Plant-Derived Cannabinoid Compounds in AB White, 21-25° C.", "setting": "120 days", "value": 0.894, "unit": "µg/mL"},
      {"measurement": "Stability of Plant-Derived Cannabinoid Compounds in AB White, 21-25° C.", "setting": "150 days", "value": 0.934, "unit": "µg/mL"},
      {"measurement": "Stability of Plant-Derived Cannabinoid Compounds in AB White, 21-25° C.", "setting": "180 days", "value": 0.945, "unit": "µg/mL"},
      {"measurement": "Stability of Plant-Derived Cannabinoid Compounds in AB White, 21-25° C.", "setting": "210 days", "value": 0.913, "unit": "µg/mL"},
      {"measurement": "Stability of Plant-Derived Cannabinoid Compounds in AB White, 21-25° C.", "setting": "240 days", "value": 0.892, "unit": "µg/mL"},
      {"measurement": "Stability of Plant-Derived Cannabinoid Compounds in AB White, 21-25° C.", "setting": "270 days", "value": 0.905, "unit": "µg/mL"},
      {"measurement": "Stability of Plant-Derived Cannabinoid Compounds in AB White, 21-25° C.", "setting": "300 days", "value": 0.888, "unit": "µg/mL"},
      {"measurement": "Stability of Plant-Derived Cannabinoid Compounds in AB White, 21-25° C.", "setting": "330 days", "value": 0.894, "unit": "µg/mL"},
      {"measurement": "Stability of Plant-Derived Cannabinoid Compounds in AB White, 21-25° C.", "setting": "360 days", "value": 0.925, "unit": "µg/mL"},
      {"measurement": "Stability of Plant-Derived Cannabinoid Compounds in AB White, 21-25° C.", "setting": "390 days", "value": 0.907, "unit": "µg/mL"},
      {"measurement": "Stability of Plant-Derived Cannabinoid Compounds in AB White, 21-25° C.", "setting": "420 days", "value": 0.909, "unit": "µg/mL"},
      {"measurement": "Stability of Plant-Derived Cannabinoid Compounds in AB White, 21-25° C.", "setting": "450 days", "value": 0.921, "unit": "µg/mL"},
      {"measurement": "Stability of Plant-Derived Cannabinoid Compounds in AB White, 21-25° C.", "setting": "480 days", "value": 0.873, "unit": "µg/mL"},
      {"measurement": "Stability of Plant-Derived Cannabinoid Compounds in AB White, 21-25° C.", "setting": "510 days", "value": 0.903, "unit": "µg/mL"},
      {"measurement": "Stability of Plant-Derived Cannabinoid Compounds in AB White, 21-25° C.", "setting": "540 days", "value": 0.877, "unit": "µg/mL"},
      {"measurement": "Stability of Plant-Derived Cannabinoid Compounds in AB White, 21-25° C.", "setting": "570 days", "value": 0.877, "unit": "µg/mL"}
    ]}
  ]
}
